Measured values reported in patent publication US4407818A, “Anti viral, anti bacterial and/or anti fungal composition containing metal oxyalkylate” (Bio-Systems Research, Inc., priority 1981, dated 1983).
Values joined by “and” are separate entries in the source; they are usually repeats but may differ in a detail not shown here. Equal values may be shown once. “Also recorded” adds a separate entry of the source.

Legend:
HSV-2 [1] = assay: Plaque assay, HSV-2 (Examples 5-7); type: cell-based, Herpes simplex virus type II
HSV-1 [2] = assay: Plaque assay, HSV-1 (Examples 8-11); type: cell-based, Herpes simplex virus type I
Echo 5 = assay: CPE trial on Echo 5 (Examples 12-14); type: cell-based; conditions: in words
Polio 1 = type: cell-based; conditions: in words; CPE trial
HSV-1 [3] = assay: CPE trial on HSV-1 (Examples 15-16); type: cell-based, Herpes simplex virus type I; conditions: in words
HSV-2 [4] = assay: CPE trial on HSV-2 (Examples 15-16); type: cell-based, Herpes simplex virus type II
Adenovirus type 4 = assay: CPE trial on Adenovirus type 4 using KB cells (Example 17); type: cell-based
Staphylococcus aureus [5] = assay: Filter paper disc bacterial inhibition test on agar plates (Example 1); type: cell-based; conditions: for Clear Area, Average: average of plates 1-4; for Clear Area: single plate, overnight at 37° C.
Protocol: (§1) A stock (1%) solution is prepared by dissolving 0.1 gm of zinc ocyacetate in 10 ml of water. A 1/2 dilution (0.5% solution) is made by admixing 5 ml of the stock solution and 5 ml of water. A 1/4 dilution (0.25% solution) is made by admixing 5 ml of the 0.5% solution and 5 ml of water. A 1/10 dilution (0.1% solution) is made by admixing 1 ml of the stock (1%) solution and 9 ml of water. Fine filter paper discs of 1 cm diameter are placed in each of four clean petri dishes. In dish #1, 0.1 ml of the 1% solution is dropped onto each filter disc and allowed to air dry. The same is done in dish #2 except that the 0.5% solution is used. The same is done on dishes #3 and #4 except that the 0.25 and 0.1% solutions, respectively,are used. One ml of a previously prepared 1×10^-4 dilution of a broth bacterial culture (Staphylococcus aureus) is then spread evenly over the entire surface of four agar plates. At the 12 o'clock position on each of the agar plates, a disc from dish #1 (1% solution) is placed. Discs from dishes #2, #3 and #4 are similarly placed at the 3 o'clock, 6 o'clock, and 9 o'clock positions, respectively, of each of the four plates. Each disc is gently pressed to enure good contact with the agar surface. For comparison purposes, a further stock solution of zinc sulphate (1%) is made up and an identical series of tests made. Each plate is incubated overnight at 37° C. and the area of inhibition--the clear area around each disc--is measured.

Bread mold = assay: Disc growth inhibition of bread mold on nutrient plate (Example 2); type: cell-based
Protocol: as §1, with “measured. Bread mold is innoculated on a nutrient plate.” for “measured.”

[6] = tested on: Herpes simplex virus type 1 (HSV-1); assay: Neutralization of viral cytopathogenic effect (CPE) on BGM cells, HSV-1 (Example 3); type: cell-based
Protocol: (§2) Evaluation of the compound is made using a simple neutralization of viral cytopathogenic effect (CPE) on Buffalo Green Monkey (BGM) cells using two tubes for each dilution of virus. […] In order to evaluate zinc oxyacetate, the compound (or the compound in equal weight admixture with lauryl alcohol) is incubated for 1 hour with the virus prior to making ten-fold serialdilutions and innoculating the BGM tubes. The amount of virus used is 0.1 ml. The amount of test material used is 0.1 ml of a solution containing 0.1% of Tween 80 and 0.1% of the test material.

HSV-2 [7] = assay: Neutralization of viral cytopathogenic effect (CPE) on BGM cells, HSV-2 (Example 3); type: cell-based, Herpes simplex virus type II
Protocol: as §2

Candida albicans = assay: Inhibition of molds, size of cleared area (Example 4); type: cell-based; conditions: 0.1 ml of a 1% solution containing 0.1% Tween 80
Protocol: (§3) Bread mold is innoculated on a nutrient plate.
(§4) In a test similar to that of Example 2, zinc oxyacetate is tested for inhibition of four bread molds. The amount of zinc oxyacetate is 0.1 ml of a 1% solution containing 0.1% Tween 80. The amount of mold is 0.1 ml.

Microsporum canis = assay: as above; type: cell-based; conditions: 0.1 ml of a 1% solution containing 0.1% Tween 80
Protocol: as §3, §4

[8] = tested on: Trichophyton mentagrophytes; assay: as above; type: cell-based; conditions: 0.1 ml of a 1% solution containing 0.1% Tween 80
Protocol: as §3, §4

Trichophyton rubrum = assay: as above; type: cell-based; conditions: 0.1 ml of a 1% solution containing 0.1% Tween 80
Protocol: as §3, §4

Staphylococcus aureus [9] = assay: Filter paper disc bacterial inhibition test on agar plates (Example 1); type: cell-based; conditions: .01% solution (as headed); for Clear Area, Average: average of plates 1-4; for Clear Area: single plate, overnight at 37° C., -- counted as zero in the average
[10] = Visible precipitate under sensitivity disc (Example 1); type: physicochemical; conditions: 1% and 0.50% concentration
Protocol: as §1, with “For comparison purposes, a further stock solution of zinc sulphate (1%) is made up and an identical series of tests made.” left out

Compound: CC(=O)[O-].CC(=O)[O-].CC(=O)[O-].CC(=O)[O-].CC(=O)[O-].CC(=O)[O-].[Mn+2].[Mn+2].[Mn+2].[Mn+2].[O-2] [Manganese compound, Magnanese oxyacetate]
- plaque assay result, HSV-2 (HSV-2 [1]; HSV-2 10^-1 (Example 5), control ND): Toxic
- plaque assay result, HSV-2 (HSV-2 [1]; HSV-2 10^-2 (Example 6), control 39): 4
- plaque assay result, HSV-2 (HSV-2 [1]; HSV-2 10^-3 (Example 7), control 5): 0
- inhibition of HSV-2 (plaque assay) (HSV-2 [1]; in words): less effective than the zinc composition; also recorded: both substances inhibited HSV-2
- plaque assay result, HSV-1 (HSV-1 [2]; HSV-1 10^-2 (Example 8), 0% methylcellulose overlay, control TNC (too numerous to count)): 90
- plaque assay result, HSV-1 (HSV-1 [2]; HSV-1 10^-2 (Example 8), 1.5% methylcellulose overlay, control ND, Irr = irregular results, TNC = too numerous to count): Irr
- plaque assay result, HSV-1 (HSV-1 [2]; HSV-1 10^-2 (Example 8), 2% methylcellulose overlay, control ND, Irr = irregular results, TNC = too numerous to count): Irr
- plaque assay result, HSV-1 (HSV-1 [2]; HSV-1 10^-3 (Example 9), 0% methylcellulose overlay, control 34): 11
- plaque assay result, HSV-1 (HSV-1 [2]; HSV-1 10^-3 (Example 9), 1.5% methylcellulose overlay, control TNC): 45
- plaque assay result, HSV-1 (HSV-1 [2]; HSV-1 10^-3 (Example 9), 2% methylcellulose overlay, control 115): 46
- plaque assay result, HSV-1 (HSV-1 [2]; HSV-1 10^-4 (Example 10), 0% methylcellulose overlay, control 6): 4
- plaque assay result, HSV-1 (HSV-1 [2]; HSV-1 10^-4 (Example 10), 1.5% methylcellulose overlay, control 38): 5
- plaque assay result, HSV-1 (HSV-1 [2]; HSV-1 10^-4 (Example 10), 2% methylcellulose overlay, control 10): 5
- plaque assay result, HSV-1 (HSV-1 [2]; HSV-1 10^-5 (Example 11), 0% methylcellulose overlay, control 5): 0
- plaque assay result, HSV-1 (HSV-1 [2]; HSV-1 10^-5 (Example 11), 1.5% methylcellulose overlay, control 3): 0
- plaque assay result, HSV-1 (HSV-1 [2]; HSV-1 10^-5 (Example 11), 2% methylcellulose overlay, control 3): 0
- effectiveness against Echo 5 (Echo 5): not effective
- effectiveness against Polio 1 (Polio 1): not effective
- effectiveness against HSV-1 (HSV-1 [3]): probably not effective against HSV-1
- size of the BGM cells (HSV-2 [4]; 10^-1 dilution of HSV-2): increase in the size of the BGM cells
- inhibition of HSV-2 (HSV-2 [4]; 10^-1 dilution of HSV-2, BGM cells): inhibit the virus completely
- inhibition of HSV-2 (HSV-2 [4]; 10^-2 and 10^-3 dilution, one tube in each dilution, later typical syncytial formation): early inhibition of virus
- CPE result (titer column), HSV-2 (HSV-2 [4]; BGM cells, control 10^-2.5): Inhibition
- effectiveness against HSV-2 (HSV-2 [4]; in words, CPE trial): effective against HSV-2
- type of action against HSV-2 (viristatic / viricidal) (HSV-2 [4]; in words, CPE trial): apparent viristatic action
- titer, Adenovirus type 4 (Adenovirus type 4; in all cases): 10^-3
- effectiveness in inhibiting the CPE of Adenovirus type 4 (Adenovirus type 4; in words): neither the test compound nor Zn carrier are effective
- solubility (in words) (Solubility in 2% FBS-MEM): readily soluble

Compound: CC(=O)O.CC(=O)O.CC(=O)O.CC(=O)O.CC(=O)O.CC(=O)O.[O-2].[Zn+2].[Zn+2].[Zn+2].[Zn+2] [Zinc oxyacetate, zibnc, hexakis(acetato) oxotetra]
- Clear Area, Average (Staphylococcus aureus [5]; 1% solution): 1.82 cm
- Clear Area (Staphylococcus aureus [5]; 1% solution): 1.85 cm and 1.80 cm and 1.78 cm
- Clear Area, Average (Staphylococcus aureus [5]; .25% solution): 1.37 cm
- Clear Area (Staphylococcus aureus [5]; .25% solution): 1.32 cm and 1.35 cm and 1.40 cm and 1.42 cm
- Clear Area, Average (Staphylococcus aureus [5]; .5% solution): 1.64 cm
- Clear Area (Staphylococcus aureus [5]; .5% solution): 1.70 cm and 1.52 cm and 1.61 cm and 1.72 cm
- bacteriostatic qualities (Staphylococcus aureus [5]; in words, versus zinc sulphate): bacteriostatic qualities comparable to those of zinc sulphate
- growth inhibition of bread mold (Bread mold; 1% solution): good growth inhibition
- growth inhibition of bread mold (Bread mold; less concentrated solution): does not noticeably inhibit growth
- growth inhibition of bread mold (Bread mold; undiluted material): good growth inhibition
- Titer based on 4+(100%) CPE, HSV-1 ([6]; BGM cells, 1 hour preincubation with virus, 0.1% test material, 0.1% Tween 80, control 10^-4): 10^-3
- effectiveness in inhibiting the virus ([6]; in words, HSV-1, BGM cells): effective in inhibiting the virus
- log inhibition, HSV-1 ([6]; titer reduction versus control): 1 log
- Titer based on 4+(100%) CPE, HSV-2 (HSV-2 [7]; BGM cells, 1 hour preincubation with virus, 0.1% test material, 0.1% Tween 80, control 10^-2): 0
- effectiveness in inhibiting the virus (HSV-2 [7]; in words, HSV-2, BGM cells): effective in inhibiting the virus
- log inhibition, HSV-2 (HSV-2 [7]; titer reduction versus control): 2 log
- Size of cleared area, Candida albicans (Candida albicans): 9 mm
- Size of cleared area, Microsporum canis (Microsporum canis): 8 mm
- Size of cleared area, Trichophyton mentagrophytes [8]: 9 mm
- Size of cleared area, Trichophyton rubrum (Trichophyton rubrum): 5 mm
- Clear Area, Average (Staphylococcus aureus [9]): 0.31 cm
- Clear Area (Staphylococcus aureus [9]): 1.25 cm

Compound: O=S(=O)([O-])[O-].[Zn+2] [Zinc sulphate, zinc sulphate, reference compound]
- Clear Area, Average (Staphylococcus aureus [5]; 1% solution): 1.66 cm
- Clear Area (Staphylococcus aureus [5]; 1% solution): 1.80 cm and 1.72 cm and 1.71 cm and 1.42 cm
- Clear Area, Average (Staphylococcus aureus [5]; .25% solution): 1.37 cm
- Clear Area (Staphylococcus aureus [5]; .25% solution): 1.40 cm and 1.39 cm and 1.31 cm
- Clear Area, Average (Staphylococcus aureus [5]; .5% solution): 1.44 cm
- Clear Area (Staphylococcus aureus [5]; .5% solution): 1.50 cm and 1.45 cm and 1.41 cm and 1.40 cm
- visible precipitate under each sensitivity disc [10]: a visible precipitate formed under each sensitivity disc
- Clear Area, Average (Staphylococcus aureus [9]): 0.61 cm
- Clear Area (Staphylococcus aureus [9]): 1.22 cm and 1.21 cm
